Results on seven compounds are retold here after patent US20130337485A1, “ENZYMATIC SYNTHESIS OF ACTIVE PHARMACEUTICAL INGREDIENT AND INTERMEDIATES THEREOF” (LEK PHARMACEUTICALS D.D, priority 2010, published 2013).

Assay [1] addresses T1, membrane bound glucose dehydrogenase from E. coli, the Gcd (Escherichia coli, UniProt P15877).
T1 construct: made in house; host or cells: E. coli BL21(DE3) carrying pET30/Gcd; not purified (resting whole cells or lysate), reconstituted with PQQ and MgCl2
T1 sequence (P15877 1-796): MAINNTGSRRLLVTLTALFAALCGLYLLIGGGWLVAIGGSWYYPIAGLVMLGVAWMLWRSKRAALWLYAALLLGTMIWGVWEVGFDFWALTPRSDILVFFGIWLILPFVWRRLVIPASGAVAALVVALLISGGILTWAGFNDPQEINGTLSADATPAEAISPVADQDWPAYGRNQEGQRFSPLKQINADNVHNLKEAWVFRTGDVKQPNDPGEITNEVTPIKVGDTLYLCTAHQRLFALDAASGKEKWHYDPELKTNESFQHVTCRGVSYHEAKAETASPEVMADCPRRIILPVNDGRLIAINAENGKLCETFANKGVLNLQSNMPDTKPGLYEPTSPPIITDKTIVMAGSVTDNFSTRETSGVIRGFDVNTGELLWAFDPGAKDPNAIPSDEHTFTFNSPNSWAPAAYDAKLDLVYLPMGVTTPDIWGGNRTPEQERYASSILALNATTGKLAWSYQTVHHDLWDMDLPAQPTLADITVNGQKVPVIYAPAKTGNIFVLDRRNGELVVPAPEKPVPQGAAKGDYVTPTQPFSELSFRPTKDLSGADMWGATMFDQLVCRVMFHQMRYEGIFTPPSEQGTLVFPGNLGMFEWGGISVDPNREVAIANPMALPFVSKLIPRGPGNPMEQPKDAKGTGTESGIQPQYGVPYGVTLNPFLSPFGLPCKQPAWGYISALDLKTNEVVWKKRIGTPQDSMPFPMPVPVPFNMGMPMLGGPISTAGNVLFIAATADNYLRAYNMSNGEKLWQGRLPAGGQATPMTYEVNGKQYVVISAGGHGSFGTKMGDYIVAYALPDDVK
Briefly: Substrate specificity and pH optima of membrane bound glucose dehydrogenase Gcd (DCPIP method). The format is biochemical. The following applies: for Activity of E. coli BL21(DE3) pET30/Gcd on substrate, lysate / Activity of E. coli BL21(DE3) pET30/Gcd on substrate, resting whole cell: 50 mM substrate, 5 μM PQQ, 10 mM MgCl2. The procedure: To investigate substrate specificity and pH optima of said E. coli membrane aldose dehydrogenase the above mentioned experiments were performed on the catalyst E. coli BL21 pET30/Gcd.

For assay [2], the target named is T2, E. coli YliI aldose dehydrogenase (Escherichia coli, UniProt P75804, A204V).
T2 construct: made in house; host or cells: E. coli BL21(DE3) carrying pET30/YliI; not purified (resting whole cells or cell free lysate), reconstituted with PQQ and MgCl2
Briefly: Substrate specificity and pH optima of E. coli YliI aldose dehydrogenase (DCPIP method). In kind it is biochemical. The following applies: for Activity of E. coli BL21(DE3) pET30/Ylil on substrate, resting whole cell: 50 mM substrate, 5 μM PQQ, 10 mM MgCl2. The procedure: (§1) Final volume of reaction mixture was 200 μL, all components were dissolved in phosphate buffer pH 8.0.
(§2) The catalyst E. coli BL21 pET30/YliI culture obtained either as resting whole cell catalyst (obtained undertaking Procedure 1C) or as lysate (as described in Example 2). The initial pH value of reaction mixture was 8.0. All tested solutions were made in triplicates.
(§3) The second reaction mixture was prepared identically to the above with a sole difference: the pH value of assembled mixture being 6.0 (all compounds of reaction mixture were dissolved in phosphate buffer pH 6.0 and the initial pH value of reaction mixture was thus 6.0). All tested solutions were made in triplicates.
(§4) Experiment was performed as described in Example 11. In the table below are shown activities of “analyzed material” (abs[mAU min^−1 mg^−1])

The test system of assay [3] is whole cell catalyst E. coli BL21 pET30/Gcd. Briefly: Whole cell catalysis capability in bioreactor using pO2 sensor. The format is cell-based. As to conditions: pH 6.2, 37° C., 5 μM PQQ, 10 mM MgCl2. The procedure: Laboratory bioreactors Infors ISF100 with maximal volume of 2 L were used for determination of whole cell catalysis capability of E. coli aldose dehydrogenases. The reactors were stirred, aerated, temperature and pH controlled as described below. When whole cell catalysts bearing holo aldose dehydrogenases were exposed to various substrates, unusual consumption of O2 appeared.
Experiments were performed using whole cell catalyst E. coli BL21 pET30/Gcd (procedure of preparation in described in Example 1, Procedure 1A and moreover in Example 25).
Whole cell catalysts were dissolved in phosphate buffer (50 mM KH2PO4, 150 mM NaCl, pH 6.2) to concentrations of 5 g/L, 10 g/L and 20 g/L to the final volume ([…] in the bioreactor.
The initial process parameters before substrate was added were as follows: 37° C., air flow rate 1.0 L/min (1.0 VVM), stirrer speed 1000 rpm, pH 6.2 and the dissolved oxygen concentration was kept at ≧80% of saturation. 5 μM PQQ and 10 mM MgCl2 were provided into bioreactor broth. Feeding solution were 12.5% (v/v) ammonium hydroxide solution and the silicone antifoam compound synperonic antifoam (Sigma, A-5551) which were fed continuously.
The system described above is very complex in terms of mathematical description of dissolved oxygen levels over the time. On the one hand these are depending on the kLa (vessel properties, stirring, aeration, medium, temperature etc) and enzymatic kinetics on the aldose dehydrogenase on the other hand. In addition the oxygen probe delay kinetics play an important role. We have therefore found empirically, that oxygen consumption in the phase after the pulse feed of the substrate till the minimum of the dissolved oxygen in this dynamic system is best correlated to quadratic equation. A good indicator of the activity potential of the studied biocatalyst is the slope of this quadratic equation, measured at specific time value (for example t=15 seconds). The slope was calculated from the first derivative of the quadratic equation.

The target in assay [4] is T3, E. coli YliI aldose dehydrogenase (Escherichia coli, UniProt P75804).
T3 construct: made in house; host or cells: E. coli BL21(DE3) carrying pET30/YliI; not purified (resting whole cells or cell free lysate), reconstituted with PQQ and MgCl2
Briefly: Substrate specificity and pH optima of E. coli YliI aldose dehydrogenase (DCPIP method). As to conditions: 50 mM substrate, 5 μM PQQ, 10 mM MgCl2. The format is biochemical. The procedure:
as §1, §2, §3, §4

Assay [5] addresses glucose oxidase from A. niger (Aspergillus niger, UniProt P13006). As to conditions: cited from earlier work.
[6] abbreviates: whole cell catalyst BL21 (DE3) pET30/Gcd 5 g/L.
[7] abbreviates: whole cell catalyst BL21 (DE3) pET30/Gcd 10 g/L.
Setting [8] is: whole cell catalyst BL21 (DE3) pET30/Gcd 20 g/L.

Molecules are shown by their SMILES.

T3 sequence (P75804 21-371 A204V): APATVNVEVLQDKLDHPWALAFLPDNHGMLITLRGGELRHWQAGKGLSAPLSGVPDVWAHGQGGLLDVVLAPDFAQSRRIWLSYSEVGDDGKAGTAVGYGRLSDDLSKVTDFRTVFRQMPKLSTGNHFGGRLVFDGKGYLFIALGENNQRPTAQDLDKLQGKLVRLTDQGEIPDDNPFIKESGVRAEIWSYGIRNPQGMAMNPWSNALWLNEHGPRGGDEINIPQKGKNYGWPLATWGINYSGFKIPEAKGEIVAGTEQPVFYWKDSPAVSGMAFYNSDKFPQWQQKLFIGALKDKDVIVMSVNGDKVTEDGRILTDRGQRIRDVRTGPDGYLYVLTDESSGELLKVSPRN
T2 sequence (P75804 21-371 A204V): as above
Chain of glucose oxidase from A. niger (P13006 17-605): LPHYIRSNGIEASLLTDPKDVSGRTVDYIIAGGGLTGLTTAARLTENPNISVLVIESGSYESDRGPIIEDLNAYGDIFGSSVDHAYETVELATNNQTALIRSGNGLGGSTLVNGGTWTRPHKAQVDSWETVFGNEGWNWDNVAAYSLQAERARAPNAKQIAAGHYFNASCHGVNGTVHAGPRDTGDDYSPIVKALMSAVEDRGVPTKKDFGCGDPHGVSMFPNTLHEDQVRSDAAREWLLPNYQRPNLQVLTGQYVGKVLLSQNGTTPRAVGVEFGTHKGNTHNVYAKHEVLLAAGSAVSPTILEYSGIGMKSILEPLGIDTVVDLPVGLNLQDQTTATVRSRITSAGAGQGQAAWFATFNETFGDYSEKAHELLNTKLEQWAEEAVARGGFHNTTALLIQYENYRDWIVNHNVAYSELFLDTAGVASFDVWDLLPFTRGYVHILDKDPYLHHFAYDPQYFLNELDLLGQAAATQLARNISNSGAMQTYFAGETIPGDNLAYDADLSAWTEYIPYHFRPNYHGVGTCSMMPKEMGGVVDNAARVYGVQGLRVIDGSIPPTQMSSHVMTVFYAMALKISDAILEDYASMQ

Consider `CC(=O)OC[C@@H]1C[C@@H](O)CC(=O)O1`, for which the “Added product concentration above which slight reduction in reaction rates was observed” value in assay [1] (E. coli BL21 pET30/Gcd, pH 6.0, in addition of 10 g/L substrate) is on record as “more than 55 g/L”; in assay [2] (E. coli BL21 pET30/YliI, pH 8.0, in addition of 10 g/L substrate), “more than 35 g/L”.
Turning to `CC(=O)OC[C@@H]1C[C@@H](O)CC(O)O1` (stereo partly drawn), the results for the “Slope of quadratic equation of oxygen consumption after substrate pulse” value in assay [3] (setting [6]), in assay [3] (setting [7]) and in assay [3] (setting [8]) were 38652, 87425 and 163562, respectively. Further, the “Substrate concentration above which slight substrate inhibition to the reaction rate was observed” value in assay [1] (E. coli BL21 pET30/Gcd, pH 6.0) was “above 60 g/L”; in assay [2] (E. coli BL21 pET30/YliI, pH 8.0), “above 40 g/L”. Also, the “DCPIP discoloration rate compared with D-glucose or D-galactose as substrate” value in assay [1] (E. coli BL21 pET30/Gcd, pH 6.0, 2.5-10 g/L substrate) was “about two times slower”; in assay [2] (E. coli BL21 pET30/YliI, pH 8.0, 2.5-10 g/L substrate) it was “about two times faster”. Besides, the “Activity of E. coli BL21(DE3) pET30/Gcd on substrate, lysate” value in assay [1] (pH 6.0) worked out at 2403 abs[mAU min^−1 mg^−1]; in assay [1] (pH 8.0), 1013 abs[mAU min^−1 mg^−1]. Further, the entries for the “Activity of E. coli BL21(DE3) pET30/Gcd on substrate, resting whole cell” value in assay [1] (pH 6.0) and in assay [1] (pH 8.0) were 2403 abs[mAU min^−1 mg^−1] and 1105 abs[mAU min^−1 mg^−1], respectively. The figures for the “Activity of E. coli BL21(DE3) pET30/Ylil on substrate, lysate” value in assay [4] (pH 6.0) and in assay [4] (pH 8.0) were 273 abs[mAU min^−1 mg^−1] and 1913 abs[mAU min^−1 mg^−1], respectively. For the same compound, the “Activity of E. coli BL21(DE3) pET30/Ylil on substrate, resting whole cell” value in assay [2] (pH 6.0) turned out to be 270 abs[mAU min^−1 mg^−1]; in assay [2] (pH 8.0), 1897 abs[mAU min^−1 mg^−1].
Turning to `O=CC[C@@H](O)[C@H](O)[C@H](O)CO` [2-deoxy-D-glucose], the “Reaction rate of oxidation by glucose oxidase, glucose as reference (100%)” value (from here on “Reaction rate of oxidation … (100%)”) in assay [5] is reported as 20-30%.
In the case of `CO[C@@H]([C@H](O)[C@@H](O)C=O)[C@H](O)CO` [4-O-methyl-D-glucose], the “Reaction rate of oxidation … (100%)” value in assay [5] is 15%.
As for `C[C@@H](O)[C@@H](O)[C@H](O)[C@@H](O)C=O` [6-deoxy-D-glucose], the “Reaction rate of oxidation … (100%)” value in assay [5] is given as 10%.
On to `O=C[C@H](O)[C@@H](O)[C@H](O)[C@H](O)CO` [D-glucose], for which the “Slope of quadratic equation of oxygen consumption after substrate pulse” value in assay [3] (setting [6]) is 45813; in assay [3] (setting [7]), 114771; in assay [3] (setting [8]), 230631. Moreover, the results for the “Activity of E. coli BL21(DE3) pET30/Gcd on substrate, lysate” value in assay [1] (pH 6.0) and in assay [1] (pH 8.0) were 2830 abs[mAU min^−1 mg^−1] and 1305 abs[mAU min^−1 mg^−1], respectively. For the same compound, the “Activity of E. coli BL21(DE3) pET30/Gcd on substrate, resting whole cell” value in assay [1] (pH 6.0) stood at 2840 abs[mAU min^−1 mg^−1]; in assay [1] (pH 8.0) it was 1260 abs[mAU min^−1 mg^−1]. For the same compound, the figures for the “Activity of E. coli BL21(DE3) pET30/Ylil on substrate, lysate” value in assay [4] (pH 6.0) and in assay [4] (pH 8.0) were 210 abs[mAU min^−1 mg^−1] and 321 abs[mAU min^−1 mg^−1], respectively. Besides, the figures for the “Activity of E. coli BL21(DE3) pET30/Ylil on substrate, resting whole cell” value in assay [2] (pH 6.0) and in assay [2] (pH 8.0) were 350 abs[mAU min^−1 mg^−1] and 356 abs[mAU min^−1 mg^−1], respectively.
Turning to `OCC(O)CO` [glycerol], the entries for the “Activity of E. coli BL21(DE3) pET30/Gcd on substrate, lysate” value in assay [1] (pH 6.0) and in assay [1] (pH 8.0) were 202 abs[mAU min^−1 mg^−1] and 100 abs[mAU min^−1 mg^−1], respectively. Also, the “Activity of E. coli BL21(DE3) pET30/Gcd on substrate, resting whole cell” value in assay [1] (pH 6.0) came to 215 abs[mAU min^−1 mg^−1]; in assay [1] (pH 8.0) it was 102 abs[mAU min^−1 mg^−1]. The “Activity of E. coli BL21(DE3) pET30/Ylil on substrate, lysate” value in assay [4] (pH 6.0) was found to be 70 abs[mAU min^−1 mg^−1]; in assay [4] (pH 8.0), 235 abs[mAU min^−1 mg^−1]. Moreover, the “Activity of E. coli BL21(DE3) pET30/Ylil on substrate, resting whole cell” value was 85 abs[mAU min^−1 mg^−1] in assay [2] (pH 6.0) and 247 abs[mAU min^−1 mg^−1] in assay [2] (pH 8.0).
